Experimental findings from ChEMBL document CHEMBL1909046, “DrugMatrix in vitro pharmacology data” are described below.

Data set [1] concerns the target 5-hydroxytryptamine receptor 2B (Homo sapiens, UniProt P41595). The class given is cell membranes, CHO-K1, Membrane. To be noted: for Ki: read-out: Ki. On all read-outs here: in other assays of this panel Not Active means under 50% inhibition at 10 µM.
The target of data set [2] is Melanocortin receptor 4 (Homo sapiens, UniProt P32245). In kind it is cell membranes, Membrane. To be noted: hek293. Further: in other assays of this panel Not Active means under 50% inhibition at 10 µM.
Data set [3] addresses T1, Cytochrome P450 1A2 (Homo sapiens, UniProt P05177).
T1 sequence (P05177 whole entry): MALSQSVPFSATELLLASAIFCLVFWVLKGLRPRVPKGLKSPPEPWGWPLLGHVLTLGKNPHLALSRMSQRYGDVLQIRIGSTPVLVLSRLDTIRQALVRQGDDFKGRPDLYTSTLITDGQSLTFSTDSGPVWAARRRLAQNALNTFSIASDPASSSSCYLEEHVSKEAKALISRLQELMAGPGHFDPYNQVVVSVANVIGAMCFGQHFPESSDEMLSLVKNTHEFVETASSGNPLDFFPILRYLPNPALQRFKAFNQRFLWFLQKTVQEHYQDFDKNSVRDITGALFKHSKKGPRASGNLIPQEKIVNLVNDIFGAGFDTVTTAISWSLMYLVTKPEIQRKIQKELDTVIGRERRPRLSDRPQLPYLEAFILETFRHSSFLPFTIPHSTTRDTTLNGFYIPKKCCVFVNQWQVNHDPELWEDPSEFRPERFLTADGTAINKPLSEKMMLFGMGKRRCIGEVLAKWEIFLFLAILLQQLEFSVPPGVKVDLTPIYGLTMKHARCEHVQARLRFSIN
The following applies: bti-tn-5b1-4.

Data set [4] concerns the target T2, Muscarinic acetylcholine receptor M2 (Homo sapiens, UniProt P08172). Further: in other assays of this panel Not Active means under 50% inhibition at 10 µM.
T2 sequence (P08172 whole entry): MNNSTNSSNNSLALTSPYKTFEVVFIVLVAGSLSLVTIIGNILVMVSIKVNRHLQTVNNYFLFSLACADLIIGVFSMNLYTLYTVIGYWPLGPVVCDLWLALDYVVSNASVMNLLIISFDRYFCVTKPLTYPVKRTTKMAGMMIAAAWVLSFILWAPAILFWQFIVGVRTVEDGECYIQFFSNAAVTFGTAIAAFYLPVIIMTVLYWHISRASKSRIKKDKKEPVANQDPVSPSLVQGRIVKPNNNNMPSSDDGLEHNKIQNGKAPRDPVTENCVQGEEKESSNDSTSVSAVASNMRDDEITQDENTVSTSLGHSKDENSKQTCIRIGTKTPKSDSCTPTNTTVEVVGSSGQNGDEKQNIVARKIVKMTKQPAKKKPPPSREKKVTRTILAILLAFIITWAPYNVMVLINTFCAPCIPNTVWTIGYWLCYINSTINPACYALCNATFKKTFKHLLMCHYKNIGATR
In kind it is cell membranes, CHO-K1, Membrane.

The target in data set [5] is T3, Alpha-2A adrenergic receptor (Homo sapiens, UniProt P08913). Further: in other assays of this panel Not Active means under 50% inhibition at 10 µM.
T3 sequence (P08913 whole entry): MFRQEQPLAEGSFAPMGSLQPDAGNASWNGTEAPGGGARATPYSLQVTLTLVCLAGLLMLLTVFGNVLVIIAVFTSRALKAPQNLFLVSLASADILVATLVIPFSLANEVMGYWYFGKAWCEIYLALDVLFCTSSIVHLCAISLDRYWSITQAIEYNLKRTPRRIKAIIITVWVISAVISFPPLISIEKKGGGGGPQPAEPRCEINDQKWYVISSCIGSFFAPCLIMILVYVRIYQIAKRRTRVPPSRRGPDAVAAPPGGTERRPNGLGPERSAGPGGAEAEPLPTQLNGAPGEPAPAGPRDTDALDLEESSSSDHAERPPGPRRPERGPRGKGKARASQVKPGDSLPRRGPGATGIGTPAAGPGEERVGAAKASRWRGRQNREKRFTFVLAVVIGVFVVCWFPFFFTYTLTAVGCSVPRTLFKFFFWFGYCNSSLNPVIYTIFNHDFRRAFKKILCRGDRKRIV
In kind it is cell membranes, Sf9, Membrane. The following applies: for Ki: read-out: Ki.

Data set [6] deals with T4, Interstitial collagenase (Homo sapiens, UniProt P03956).
T4 sequence (P03956 whole entry): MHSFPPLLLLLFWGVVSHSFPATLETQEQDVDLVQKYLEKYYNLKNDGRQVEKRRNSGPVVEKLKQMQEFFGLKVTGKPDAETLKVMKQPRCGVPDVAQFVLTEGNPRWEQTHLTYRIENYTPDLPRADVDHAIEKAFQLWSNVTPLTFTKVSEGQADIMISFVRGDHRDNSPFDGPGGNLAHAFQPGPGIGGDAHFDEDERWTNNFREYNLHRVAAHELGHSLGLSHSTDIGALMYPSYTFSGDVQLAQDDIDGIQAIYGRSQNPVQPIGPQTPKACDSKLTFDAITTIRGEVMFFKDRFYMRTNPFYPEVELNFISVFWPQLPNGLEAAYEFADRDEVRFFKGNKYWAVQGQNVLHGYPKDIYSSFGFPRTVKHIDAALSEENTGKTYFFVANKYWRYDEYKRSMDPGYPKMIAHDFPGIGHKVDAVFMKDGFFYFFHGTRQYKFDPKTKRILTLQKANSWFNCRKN
The data set can be described thus: biochemical. The class given is tissue-based, Rheumatoid synovial fibroblasts.

The target in data set [7] is Carbonic anhydrase 2 (Homo sapiens, UniProt P00918). The data set can be described thus: DRUGMATRIX: Carbonic Anhydrase II enzyme inhibition (substrate: 4-Nitrophenyl acetate (4-NPA)). In kind it is tissue-based, Erythrocyte. To be noted: erythrocyte; Not Active = under 50% inhibition at 10 µM.
Wherever Ki is given: in other assays of this panel Not Active means under 50% inhibition at 10 µM.

Sequence of 5-hydroxytryptamine receptor 2B (P41595 whole entry): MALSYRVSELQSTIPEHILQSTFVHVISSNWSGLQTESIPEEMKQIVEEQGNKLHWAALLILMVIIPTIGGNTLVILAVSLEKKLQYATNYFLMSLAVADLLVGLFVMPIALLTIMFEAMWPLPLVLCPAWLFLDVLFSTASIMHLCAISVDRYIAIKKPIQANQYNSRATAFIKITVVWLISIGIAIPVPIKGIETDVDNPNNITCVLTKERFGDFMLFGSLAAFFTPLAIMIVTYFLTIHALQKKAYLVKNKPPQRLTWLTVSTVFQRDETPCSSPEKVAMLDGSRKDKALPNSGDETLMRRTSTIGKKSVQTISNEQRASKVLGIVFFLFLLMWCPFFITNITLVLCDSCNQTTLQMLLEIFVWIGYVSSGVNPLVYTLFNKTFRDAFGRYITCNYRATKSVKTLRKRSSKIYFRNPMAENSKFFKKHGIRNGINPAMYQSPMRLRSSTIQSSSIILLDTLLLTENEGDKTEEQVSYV
Sequence of Melanocortin receptor 4 (P32245 whole entry): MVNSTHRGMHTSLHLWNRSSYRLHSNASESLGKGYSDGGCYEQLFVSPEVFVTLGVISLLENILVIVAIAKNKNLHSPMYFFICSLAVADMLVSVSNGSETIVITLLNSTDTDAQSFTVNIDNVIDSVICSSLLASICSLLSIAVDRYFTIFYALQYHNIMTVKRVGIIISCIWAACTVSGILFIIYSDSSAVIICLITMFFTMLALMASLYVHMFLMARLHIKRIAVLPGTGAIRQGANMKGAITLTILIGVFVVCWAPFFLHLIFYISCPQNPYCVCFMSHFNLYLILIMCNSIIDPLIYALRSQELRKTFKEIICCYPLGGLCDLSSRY

Usually IC50 stands for the point on the concentration scale where inhibition reaches its midpoint. Broadly, the Ki is a measure of affinity in units of concentration, obtained from inhibition or displacement. On to `CCCCC(=O)N(Cc1ccc(-c2ccccc2-c2nnn[nH]2)cc1)[C@H](C(=O)O)C(C)C`, for which the half-maximal inhibitory concentration (IC50) result in data set [1] (cho-k1), in data set [2], in data set [3], in data set [4] (cho-k1), in data set [5] (sf9) and in data set [6] was “Not Active” throughout. For the same compound, in data set [7], the 50% inhibitory concentration (IC50) result is recorded as “Not Active”. Also, the inhibition constant Ki result in data set [3] is “Not Active”.
Consider `O=C(O)COc1ccc(C(=O)c2cccs2)c(Cl)c1Cl`, for which the 50% inhibitory concentration (IC50) result in data set [1] (cho-k1), in data set [2], in data set [3], in data set [4] (cho-k1), in data set [5] (sf9) and in data set [6] was “Not Active” throughout. Also, the IC50 result in data set [7] is listed as “Not Active”. Further, the inhibition constant (Ki) result in data set [3] is given as “Not Active”.
For the compound `CN1[C@@H]2CC[C@H]1C[C@@H](OC(c1ccccc1)c1ccccc1)C2` [BENZTROPINE], the IC50 in data set [1] (read-out: IC50) was 0.2 µM; in data set [2], “Not Active”; in data set [3] it was “Not Active”; in data set [6], “Not Active”; in data set [7], “Not Active”. Moreover, the Ki in data set [1] is 0.127 µM; in data set [3] it was “Not Active”.
`C[C@@](Cc1ccc(O)c(O)c1)(NN)C(=O)O.O` [CARBIDOPA]: the 50% inhibitory concentration (IC50) entry in data set [1] (cho-k1), in data set [2], in data set [3], in data set [4] (cho-k1), in data set [5] (sf9) and in data set [6] was “Not Active” each time. Besides, the concentration for half-maximal inhibition (IC50) entry in data set [7] is recorded as “Not Active”. For the same compound, the Ki result in data set [3] is given as “Not Active”.
For `CN1CCN(C2=Nc3cc(Cl)ccc3Nc3ccccc32)CC1` [CLOZAPINE], the concentration for half-maximal inhibition (IC50) entry in data set [2], in data set [3], in data set [6] and in data set [7] was “Not Active” in each case. Also, the Ki result in data set [3] is “Not Active”.
In the case of `CC(C)NC[C@@H](O)COc1cccc2ccccc12` [DEXPROPRANOLOL], the IC50 result in data set [2], in data set [3], in data set [4] (cho-k1), in data set [5] (sf9), in data set [6] and in data set [7] was “Not Active” in each case. Moreover, the inhibition constant Ki entry in data set [3] is “Not Active”.
In the case of `CC(C)NC[C@H](O)COc1cccc2ccccc12` [LEVOPROPRANOLOL], the half-maximal inhibitory concentration (IC50) entry in data set [2], in data set [3], in data set [4] (cho-k1), in data set [5] (sf9), in data set [6] and in data set [7] was “Not Active” throughout. In data set [3], the Ki result was “Not Active”.
For the compound `O=C(O)CCCCC1CCSS1` (stereo not drawn) [LIPOIC ACID, ALPHA], the half-maximal inhibitory concentration (IC50) entry in data set [1] (cho-k1), in data set [2], in data set [3], in data set [4] (cho-k1), in data set [5] (sf9) and in data set [6] was “Not Active” each time. For the same compound, the 50% inhibitory concentration (IC50) entry in data set [7] is given as “Not Active”. Moreover, the Ki entry in data set [3] is listed as “Not Active”.
In the case of `CN(C)C(=O)C(CCN1CCC(O)(c2ccc(Cl)cc2)CC1)(c1ccccc1)c1ccccc1` [LOPERAMIDE], the IC50 in data set [1] (read-out: IC50) was 4.1 µM; in data set [2] it was “Not Active”; in data set [3] it was “Not Active”; in data set [4] (cho-k1) it was “Not Active”; in data set [5] (sf9), “Not Active”; in data set [6], “Not Active”. In data set [7], the concentration for half-maximal inhibition (IC50) entry is recorded as “Not Active”. Further, the Ki in data set [1] was 2.61 µM; in data set [3], “Not Active”.
On to `Clc1ccc(COC(Cn2ccnc2)c2ccc(Cl)cc2Cl)c(Cl)c1` (stereo not given) [MICONAZOLE], for which the IC50 in data set [1] (read-out: IC50) was 5.55 µM; in data set [3] it was “Not Active”; in data set [4] (read-out: IC50), 4.34 µM; in data set [5] (read-out: IC50), 3.97 µM; in data set [6] it was “Not Active”; in data set [7], “Not Active”. For the same compound, the inhibition constant (Ki) in data set [1] was 3.53 µM; in data set [3] it was “Not Active”; in data set [4] (read-out: Ki), 1.54 µM; in data set [5], 1.49 µM.
As to `Oc1ccc2c3c1O[C@H]1[C@@H](O)CC[C@@]4(O)[C@@H](C2)N(CC2CCC2)CC[C@]314` [NALBUPHINE], the concentration for half-maximal inhibition (IC50) entry in data set [1] (cho-k1), in data set [2], in data set [4] (cho-k1), in data set [5] (sf9), in data set [6] and in data set [7] was “Not Active” each time.
Take `C[C@]12C=CC(=O)C=C1CC[C@@H]1[C@@H]2C(=O)C[C@@]2(C)[C@H]1CC[C@]2(O)C(=O)CO` [PREDNISONE]: the IC50 entry in data set [1] (cho-k1), in data set [2], in data set [4] (cho-k1), in data set [5] (sf9), in data set [6] and in data set [7] was “Not Active” in each case.
On to `OCCOCCN1CCN(C2=Nc3ccccc3Sc3ccccc32)CC1` [QUETIAPINE], for which the IC50 result in data set [2], in data set [3], in data set [6] and in data set [7] was “Not Active” throughout. For the same compound, the Ki entry in data set [3] is “Not Active”.
With `COC(=O)[C@H]1[C@H]2C[C@@H]3c4[nH]c5cc(OC)ccc5c4CCN3C[C@H]2C[C@@H](OC(=O)c2cc(OC)c(OC)c(OC)c2)[C@@H]1OC` [RESERPINE], the IC50 result in data set [1] (cho-k1), in data set [2], in data set [3], in data set [4] (cho-k1), in data set [5] (sf9) and in data set [6] was “Not Active” in each case. In data set [7], the IC50 result was “Not Active”. For the same compound, in data set [3], the inhibition constant (Ki) entry is “Not Active”.
With `O=C(O)c1ccccc1O` [SALICYLIC ACID], the 50% inhibitory concentration (IC50) result in data set [1] (cho-k1), in data set [2], in data set [3], in data set [4] (cho-k1), in data set [5] (sf9) and in data set [6] was “Not Active” each time. For the same compound, the 50% inhibitory concentration (IC50) entry in data set [7] is “Not Active”. The inhibition constant (Ki) result in data set [3] is reported as “Not Active”.
Consider `C[S+]([O-])c1ccc(-c2nc(-c3ccncc3)c(-c3ccc(F)cc3)[nH]2)cc1` (stereo not given) [SB-203580], for which the IC50 entry in data set [1] (cho-k1), in data set [2], in data set [4] (cho-k1), in data set [5] (sf9), in data set [6] and in data set [7] was “Not Active” in each case.
For `CCCCCCCCNC(C)C(O)c1ccc(SC(C)C)cc1` (stereo not given) [SULOCTIDIL], the IC50 is 0.939 µM in data set [1] (read-out: IC50); “Not Active” in data set [2]; “Not Active” in data set [4] (cho-k1); 2.02 µM in data set [5] (read-out: IC50); “Not Active” in data set [6]; “Not Active” in data set [7]. In addition, the inhibition constant Ki in data set [1] was determined as 0.598 µM; in data set [5], 0.759 µM.
With `CN1CCN(CCCN2c3ccccc3Sc3ccc(C(F)(F)F)cc32)CC1` [TRIFLUOPERAZINE], the half-inhibitory concentration (IC50) entry in data set [1] (cho-k1), in data set [2], in data set [4] (cho-k1), in data set [5] (sf9), in data set [6] and in data set [7] was “Not Active” in each case.
